The numbers were not newly measured in patent publication US20090318548A1, “PARA-QUINOL DERIVATIVES AND METHODS OF STEREO SELECTIVELY SYNTHESIZING AND USING SAME” (UNIVERSITY OF NORTHERN BRITISH COLUMBIA, priority 2006, published 2009), which cites them from elsewhere.

A word on the IC50: it is the concentration at which inhibition is half-maximal.

One data set deals with Bacillus subtilis YycG (Bacillus subtilis, UniProt Q45614). The conditions noted are these: for inhibition of Bacillus subtilis YycG (comparative experiments): established antibiotics as comparators.
Sequence of Bacillus subtilis YycG (Q45614 whole entry): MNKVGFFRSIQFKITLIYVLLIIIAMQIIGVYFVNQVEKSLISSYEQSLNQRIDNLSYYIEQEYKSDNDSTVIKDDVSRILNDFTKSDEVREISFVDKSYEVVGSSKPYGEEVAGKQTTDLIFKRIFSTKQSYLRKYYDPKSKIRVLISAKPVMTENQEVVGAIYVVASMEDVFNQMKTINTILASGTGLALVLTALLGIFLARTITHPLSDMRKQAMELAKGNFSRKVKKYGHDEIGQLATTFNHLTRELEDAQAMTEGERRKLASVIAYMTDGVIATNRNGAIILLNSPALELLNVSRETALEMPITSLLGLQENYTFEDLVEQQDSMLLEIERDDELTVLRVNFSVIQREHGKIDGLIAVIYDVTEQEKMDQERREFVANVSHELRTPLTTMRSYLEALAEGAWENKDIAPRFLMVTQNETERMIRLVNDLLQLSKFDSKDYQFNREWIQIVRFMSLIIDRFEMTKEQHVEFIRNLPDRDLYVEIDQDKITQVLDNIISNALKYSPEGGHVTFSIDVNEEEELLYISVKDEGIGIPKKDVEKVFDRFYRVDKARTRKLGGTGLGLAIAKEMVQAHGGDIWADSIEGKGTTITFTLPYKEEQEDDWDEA
Data set [1] deals with T1, YycG from Staphylococcus aureus (Staphylococcus aureus, UniProt Q2G2U4).
T1 sequence (Q2G2U4 1-608): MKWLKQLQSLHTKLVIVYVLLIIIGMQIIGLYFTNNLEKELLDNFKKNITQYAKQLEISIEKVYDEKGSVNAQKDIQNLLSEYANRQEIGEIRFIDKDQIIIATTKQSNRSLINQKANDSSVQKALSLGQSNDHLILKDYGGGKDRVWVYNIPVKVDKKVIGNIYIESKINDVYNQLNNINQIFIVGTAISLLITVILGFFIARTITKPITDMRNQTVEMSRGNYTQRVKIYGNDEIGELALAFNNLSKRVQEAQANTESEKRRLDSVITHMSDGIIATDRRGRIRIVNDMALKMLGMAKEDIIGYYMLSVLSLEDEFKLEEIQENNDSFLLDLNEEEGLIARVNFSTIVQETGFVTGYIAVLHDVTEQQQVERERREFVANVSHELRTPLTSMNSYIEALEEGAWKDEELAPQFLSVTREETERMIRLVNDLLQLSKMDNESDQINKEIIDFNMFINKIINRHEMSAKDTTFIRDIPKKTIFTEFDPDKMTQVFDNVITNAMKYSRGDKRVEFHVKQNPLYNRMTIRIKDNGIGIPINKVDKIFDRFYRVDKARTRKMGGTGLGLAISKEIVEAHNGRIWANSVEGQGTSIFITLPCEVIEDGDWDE
As to conditions: read-out: IC50, inhibition of YycG.

Data set [2] concerns the target POLO-like kinase 1 (Plk1) enzyme (Homo sapiens, UniProt P53350).

Sequence of POLO-like kinase 1 (Plk1) enzyme (P53350 whole entry, species assumed): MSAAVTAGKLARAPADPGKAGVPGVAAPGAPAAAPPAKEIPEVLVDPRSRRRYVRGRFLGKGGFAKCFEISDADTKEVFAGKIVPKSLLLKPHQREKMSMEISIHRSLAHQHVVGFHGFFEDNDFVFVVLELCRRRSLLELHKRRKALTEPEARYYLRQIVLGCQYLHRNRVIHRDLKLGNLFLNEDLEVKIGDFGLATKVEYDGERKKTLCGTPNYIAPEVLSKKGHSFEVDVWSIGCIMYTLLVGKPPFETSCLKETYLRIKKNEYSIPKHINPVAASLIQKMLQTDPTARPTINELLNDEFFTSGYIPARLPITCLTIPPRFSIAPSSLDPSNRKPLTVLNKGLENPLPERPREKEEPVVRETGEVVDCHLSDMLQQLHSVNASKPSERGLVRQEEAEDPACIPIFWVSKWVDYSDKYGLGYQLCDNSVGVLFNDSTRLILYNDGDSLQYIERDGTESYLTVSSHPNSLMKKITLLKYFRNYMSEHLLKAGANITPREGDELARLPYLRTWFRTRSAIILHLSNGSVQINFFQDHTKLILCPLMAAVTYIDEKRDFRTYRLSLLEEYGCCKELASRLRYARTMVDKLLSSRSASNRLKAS

Turning to `Cc1nnc(SCC2=C(C(=O)O)N3C(=O)[C@@H](NC(=O)Cn4cnnn4)[C@H]3SC2)s1` [cefazolin], on Bacillus subtilis YycG, the “inhibition of Bacillus subtilis YycG (comparative experiments)” value (“inhibition of Bacillus subtilis YycG” below) is “negligible inhibition”.

As for `CC[C@H]1OC(=O)[C@H](C)[C@@H](O[C@H]2C[C@@](C)(OC)[C@@H](O)[C@H](C)O2)[C@H](C)[C@@H](O[C@@H]2O[C@H](C)C[C@H](N(C)C)[C@H]2O)[C@](C)(O)C[C@@H](C)C(=O)[C@H](C)[C@@H](O)[C@]1(C)O` [erythromycin], the “inhibition of Bacillus subtilis YycG” value on Bacillus subtilis YycG is “negligible inhibition”. As for `CCCCCCC(C)/C=C(C)/C=C/C(=O)N[C@H]1CC2(O[C@H]1O)[C@@H]1O[C@@H]1C(O)(CC(C)=O)[C@@H]1O[C@@H]12` (stereo partly drawn) [Aranorosinol B], the IC50 at Bacillus subtilis YycG (YycG from Bacillus subtilis, read-out: IC50, inhibition of YycG) was 223 µM; in data set [1], 211 µM. In the case of `CCCCCCC(C)/C=C(C)/C=C/C(=O)NC1CC2(OC1O)C1OC1C(O)C1OC12` (stereo not drawn) [Aranorosinol A], the “inhibition of Plk1 enzyme” value in data set [2] is 118 µM. Turning to `NCC[C@H](O)C(=O)N[C@@H]1C[C@H](N)[C@@H](O[C@H]2O[C@H](CN)[C@@H](O)[C@H](O)[C@H]2O)[C@H](O)[C@H]1O[C@H]1O[C@H](CO)[C@@H](O)[C@H](N)[C@H]1O` [amikacin], the “inhibition of Bacillus subtilis YycG” value on Bacillus subtilis YycG was “negligible inhibition”.
